Each compound was assayed on 843126-344-R-J1-PDC complex spheroid viability (assay: Anticancer human tumor 843126-344-R-J1-PDC patient-derived melanoma cell line growth inhibition [POLQ]). Conditions: curve of first compound; second compound 0.0316 µM.
Method in brief: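 Complex spheroid viability model combining PDC tumour cells with endothelial (HUVEC) and MSC stromal cells. Novobiocin, ART-558 or RP6685 were tested singly and in combination with standard and investigational anticancer drugs. Each was titrated in half-log steps from near clinical Cmax, or from 10 microM where Cmax was unknown.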

`CCc1c2c(nc3ccc(O)cc13)-c1cc3c(c(=O)n1C2)COC(=O)[C@]3(O)CC` + Nc1ccc(C#CCN(C(=O)Cc2ncc(C(F)(F)F)cc2C(F)(F)F)c2ccc(F)cc2)nn1 and `C=CCn1c(=O)c2cnc(Nc3ccc(N4CCN(C)CC4)cc3)nc2n1-c1cccc(C(C)(C)O)n1` + Nc1ccc(C#CCN(C(=O)Cc2ncc(C(F)(F)F)cc2C(F)(F)F)c2ccc(F)cc2)nn1 cannot be ordered by IC50: over 1000 nM for the first, over 1000 nM for the second.

Going from `CCc1c2c(nc3ccc(O)cc13)-c1cc3c(c(=O)n1C2)COC(=O)[C@]3(O)CC` + Cc1cccc(N(C)C(=O)C2C(O)CCN2c2nc(C)cc(C(F)(F)F)c2C#N)c1 to `CCCS(=O)(=O)Nc1ccc(F)c(C(=O)c2c[nH]c3ncc(-c4ccc(Cl)cc4)cc23)c1F` + COC1C(OC(N)=O)C(O)C(Oc2ccc3c(O)c(NC(=O)c4ccc(O)c(CC=C(C)C)c4)c(=O)oc3c2C)OC1(C)C, the IC50 rises from 991 nM to over 10000 nM. The first is the more potent here.

Going from `COc1cc2cc(C(=O)CCC(=O)O)sc2cc1OC` + Cc1cccc(N(C)C(=O)C2C(O)CCN2c2nc(C)cc(C(F)(F)F)c2C#N)c1 to `Nc1ccn(C2OC(CO)C(O)C2(F)F)c(=O)n1` (stereo unspecified) + Cc1cccc(N(C)C(=O)C2C(O)CCN2c2nc(C)cc(C(F)(F)F)c2C#N)c1, the IC50 falls from over 10000 nM to under 31.6 nM.

`C#Cc1c(F)ccc2cc(O)cc(-c3ncc4c(N5CC6CCC(C5)N6)nc(OCC56CCCN5CC(F)C6)nc4c3F)c12` (stereo unspecified) + Cc1cccc(N(C)C(=O)C2C(O)CCN2c2nc(C)cc(C(F)(F)F)c2C#N)c1 gave an IC50 of over 10000 nM.

Same assay, conditions: curve of first compound; second compound 0.1 µM

`CCc1c2c(nc3ccc(O)cc13)-c1cc3c(c(=O)n1C2)COC(=O)[C@]3(O)CC` + Nc1ccc(C#CCN(C(=O)Cc2ncc(C(F)(F)F)cc2C(F)(F)F)c2ccc(F)cc2)nn1 and `C=CCn1c(=O)c2cnc(Nc3ccc(N4CCN(C)CC4)cc3)nc2n1-c1cccc(C(C)(C)O)n1` + Nc1ccc(C#CCN(C(=O)Cc2ncc(C(F)(F)F)cc2C(F)(F)F)c2ccc(F)cc2)nn1 cannot be ordered by IC50: over 1000 nM for the first, over 1000 nM for the second.

First: CCc1c2c(nc3ccc(O)cc13)-c1cc3c(c(=O)n1C2)COC(=O)[C@]3(O)CC + Cc1cccc(N(C)C(=O)C2C(O)CCN2c2nc(C)cc(C(F)(F)F)c2C#N)c1
Second: CCCS(=O)(=O)Nc1ccc(F)c(C(=O)c2c[nH]c3ncc(-c4ccc(Cl)cc4)cc23)c1F + COC1C(OC(N)=O)C(O)C(Oc2ccc3c(O)c(NC(=O)c4ccc(O)c(CC=C(C)C)c4)c(=O)oc3c2C)OC1(C)C
The IC50 of the first is lower: 749 nM for the first, over 10000 nM for the second. The first is the more potent here.

First: COc1cc2cc(C(=O)CCC(=O)O)sc2cc1OC + Cc1cccc(N(C)C(=O)C2C(O)CCN2c2nc(C)cc(C(F)(F)F)c2C#N)c1
Second: Nc1ccn(C2OC(CO)C(O)C2(F)F)c(=O)n1 (stereo unspecified) + Cc1cccc(N(C)C(=O)C2C(O)CCN2c2nc(C)cc(C(F)(F)F)c2C#N)c1
The IC50 of the first is higher: over 10000 nM for the first, under 31.6 nM for the second.

Compound `C#Cc1c(F)ccc2cc(O)cc(-c3ncc4c(N5CC6CCC(C5)N6)nc(OCC56CCCN5CC(F)C6)nc4c3F)c12` (stereo unspecified) + Cc1cccc(N(C)C(=O)C2C(O)CCN2c2nc(C)cc(C(F)(F)F)c2C#N)c1 has an IC50 of over 10000 nM.

Same assay, conditions: curve of first compound; second compound 0.316 µM

`CCc1c2c(nc3ccc(O)cc13)-c1cc3c(c(=O)n1C2)COC(=O)[C@]3(O)CC` + Nc1ccc(C#CCN(C(=O)Cc2ncc(C(F)(F)F)cc2C(F)(F)F)c2ccc(F)cc2)nn1 and `C=CCn1c(=O)c2cnc(Nc3ccc(N4CCN(C)CC4)cc3)nc2n1-c1cccc(C(C)(C)O)n1` + Nc1ccc(C#CCN(C(=O)Cc2ncc(C(F)(F)F)cc2C(F)(F)F)c2ccc(F)cc2)nn1 cannot be ordered by IC50: over 1000 nM for the first, over 1000 nM for the second.

Compared with `CCc1c2c(nc3ccc(O)cc13)-c1cc3c(c(=O)n1C2)COC(=O)[C@]3(O)CC` + Cc1cccc(N(C)C(=O)C2C(O)CCN2c2nc(C)cc(C(F)(F)F)c2C#N)c1, `CCCS(=O)(=O)Nc1ccc(F)c(C(=O)c2c[nH]c3ncc(-c4ccc(Cl)cc4)cc23)c1F` + COC1C(OC(N)=O)C(O)C(Oc2ccc3c(O)c(NC(=O)c4ccc(O)c(CC=C(C)C)c4)c(=O)oc3c2C)OC1(C)C is higher in IC50: 400 nM for the first, over 10000 nM for the second. The first is the more potent here.

Going from `COc1cc2cc(C(=O)CCC(=O)O)sc2cc1OC` + Cc1cccc(N(C)C(=O)C2C(O)CCN2c2nc(C)cc(C(F)(F)F)c2C#N)c1 to `Nc1ccn(C2OC(CO)C(O)C2(F)F)c(=O)n1` (stereo unspecified) + Cc1cccc(N(C)C(=O)C2C(O)CCN2c2nc(C)cc(C(F)(F)F)c2C#N)c1, the IC50 falls from over 10000 nM to under 31.6 nM. The second is the more potent here.

`C#Cc1c(F)ccc2cc(O)cc(-c3ncc4c(N5CC6CCC(C5)N6)nc(OCC56CCCN5CC(F)C6)nc4c3F)c12` (stereo unspecified) + Cc1cccc(N(C)C(=O)C2C(O)CCN2c2nc(C)cc(C(F)(F)F)c2C#N)c1 gave an IC50 of over 10000 nM.

Same assay, conditions: curve of first compound; second compound 1 µM

`CCc1c2c(nc3ccc(O)cc13)-c1cc3c(c(=O)n1C2)COC(=O)[C@]3(O)CC` + Nc1ccc(C#CCN(C(=O)Cc2ncc(C(F)(F)F)cc2C(F)(F)F)c2ccc(F)cc2)nn1 and `C=CCn1c(=O)c2cnc(Nc3ccc(N4CCN(C)CC4)cc3)nc2n1-c1cccc(C(C)(C)O)n1` + Nc1ccc(C#CCN(C(=O)Cc2ncc(C(F)(F)F)cc2C(F)(F)F)c2ccc(F)cc2)nn1 cannot be ordered by IC50: over 1000 nM for the first, over 1000 nM for the second.

`CCc1c2c(nc3ccc(O)cc13)-c1cc3c(c(=O)n1C2)COC(=O)[C@]3(O)CC` + Cc1cccc(N(C)C(=O)C2C(O)CCN2c2nc(C)cc(C(F)(F)F)c2C#N)c1 and `CCCS(=O)(=O)Nc1ccc(F)c(C(=O)c2c[nH]c3ncc(-c4ccc(Cl)cc4)cc23)c1F` + COC1C(OC(N)=O)C(O)C(Oc2ccc3c(O)c(NC(=O)c4ccc(O)c(CC=C(C)C)c4)c(=O)oc3c2C)OC1(C)C cannot be ordered by IC50: over 1000 nM for the first, over 10000 nM for the second.

Going from `COc1cc2cc(C(=O)CCC(=O)O)sc2cc1OC` + Cc1cccc(N(C)C(=O)C2C(O)CCN2c2nc(C)cc(C(F)(F)F)c2C#N)c1 to `Nc1ccn(C2OC(CO)C(O)C2(F)F)c(=O)n1` (stereo unspecified) + Cc1cccc(N(C)C(=O)C2C(O)CCN2c2nc(C)cc(C(F)(F)F)c2C#N)c1, the IC50 falls from over 10000 nM to under 31.6 nM.

With `C#Cc1c(F)ccc2cc(O)cc(-c3ncc4c(N5CC6CCC(C5)N6)nc(OCC56CCCN5CC(F)C6)nc4c3F)c12` (stereo unspecified) + Cc1cccc(N(C)C(=O)C2C(O)CCN2c2nc(C)cc(C(F)(F)F)c2C#N)c1 the IC50 was over 10000 nM.

Same assay, conditions: curve of first compound; second compound 3.16 µM

`CCc1c2c(nc3ccc(O)cc13)-c1cc3c(c(=O)n1C2)COC(=O)[C@]3(O)CC` + Nc1ccc(C#CCN(C(=O)Cc2ncc(C(F)(F)F)cc2C(F)(F)F)c2ccc(F)cc2)nn1 and `C=CCn1c(=O)c2cnc(Nc3ccc(N4CCN(C)CC4)cc3)nc2n1-c1cccc(C(C)(C)O)n1` + Nc1ccc(C#CCN(C(=O)Cc2ncc(C(F)(F)F)cc2C(F)(F)F)c2ccc(F)cc2)nn1 cannot be ordered by IC50: over 1000 nM for the first, over 1000 nM for the second.

`CCc1c2c(nc3ccc(O)cc13)-c1cc3c(c(=O)n1C2)COC(=O)[C@]3(O)CC` + Cc1cccc(N(C)C(=O)C2C(O)CCN2c2nc(C)cc(C(F)(F)F)c2C#N)c1 and `CCCS(=O)(=O)Nc1ccc(F)c(C(=O)c2c[nH]c3ncc(-c4ccc(Cl)cc4)cc23)c1F` + COC1C(OC(N)=O)C(O)C(Oc2ccc3c(O)c(NC(=O)c4ccc(O)c(CC=C(C)C)c4)c(=O)oc3c2C)OC1(C)C cannot be ordered by IC50: over 1000 nM for the first, over 10000 nM for the second.

Compared with `COc1cc2cc(C(=O)CCC(=O)O)sc2cc1OC` + Cc1cccc(N(C)C(=O)C2C(O)CCN2c2nc(C)cc(C(F)(F)F)c2C#N)c1, `Nc1ccn(C2OC(CO)C(O)C2(F)F)c(=O)n1` (stereo unspecified) + Cc1cccc(N(C)C(=O)C2C(O)CCN2c2nc(C)cc(C(F)(F)F)c2C#N)c1 is lower in IC50: over 10000 nM for the first, under 31.6 nM for the second. The second is the more potent here.

Compound `C#Cc1c(F)ccc2cc(O)cc(-c3ncc4c(N5CC6CCC(C5)N6)nc(OCC56CCCN5CC(F)C6)nc4c3F)c12` (stereo unspecified) + Cc1cccc(N(C)C(=O)C2C(O)CCN2c2nc(C)cc(C(F)(F)F)c2C#N)c1 has an IC50 of over 10000 nM.

Same assay, conditions: curve of first compound; second compound 10 µM

`CCc1c2c(nc3ccc(O)cc13)-c1cc3c(c(=O)n1C2)COC(=O)[C@]3(O)CC` + Nc1ccc(C#CCN(C(=O)Cc2ncc(C(F)(F)F)cc2C(F)(F)F)c2ccc(F)cc2)nn1 gave an IC50 of over 1000 nM.
